Reference: patent US20260248800A1, “FERROPTOSIS INHIBITORS AND USES THEREOF” (UNIVERSITY OF OTTAWA, priority 2022, published 2026)
Like-named read-outs stand apart in the source and are kept apart here. Marks after values point to notes of the source that are not given here. Each block holds one compound with its values, some of them ahead of it.

Tests used:
[1] = MeOAMVN-initiated co-autoxidation of STY-BODIPY and egg PC liposomes (FENIX); format: biochemical; details: for n (radical-trapping stoichiometry): MeOAMVN-initiated co-autoxidation of STY-BODIPY and egg PC liposomes
[2] = test system: Pfa-1 mouse embryonic fibroblasts (MEFs); assay: cells; details: Fibroblast
[3] = test system: MEFs; details: inhibition of RSL3-induced ferroptosis in MEFs; Shah et al., 2017; cited from earlier work
[4] = at 37° C. in PhCl; literature; cited from earlier work
[5] = H-bond acidity (α2^H) of the RTA by 1H NMR; format: physicochemical; details: estimated from the 1H NMR chemical shift difference of the amine proton in DMSO-d6 and benzene-d6
[6] = Liver microsome stability assay; details: pH 7.4
[7] = test system: Pfa-1 mouse embryonic fibroblasts (MEFs)
[8] = mouse, microsomes
[9] = in dilinoleoyl phosphatidylcholine (PC) liposomes; cited from earlier work
[10] = inhibited autoxidation of styrene in chlorobenzene; cited from earlier work
[11] = apparent inhibition rate constant, MeOAMVN-initiated autoxidation of egg PC liposomes, determined by absorbance (STY-BODIPY 10-20 μM, 565 nm)
[12] = measured in MeOAMVN-initiated autoxidation of egg PC liposomes
[13] = 5 h, read-out: Pfa-1 MEF Ferroptosis EC50, RSL3-induced cell death (150 nM for 5 hours), AquaBluer
[14] = Table 6, from survival curve of RSL3 induced ferroptosis of pfa-1 MEFS
[15] = read-out: Pfa-1 MEF Ferroptosis EC50, RSL3-induced cell death (150 nM for 5 hours), AquaBluer
[16] = apparent inhibition rate constant, MeOAMVN-initiated autoxidation of egg PC liposomes, determined by fluorescence
[17] = RSL3-induced cell death (150 nM for 5 hours), AquaBluer

SMILES: c1ccc2c(c1)Nc1ccccc1O2 [Compound 1, phenoxazine, reference compound]
n (radical-trapping stoichiometry) [1]: 2.0 ± 0.1
kinh^lip [1, 11]: (232 ± 23)^e 10^5 M^−1s^−1
kinh^lip [1, 12]: 220000 M⁻¹ s⁻¹
EC50 [2]: 16 ± 1 nM
EC50 ([2]; 5 h, read-out: Pfa-1 MEF Ferroptosis EC50): 16 nM
EC50 [3]: 9 nM
kinh [4]: ~ 4×10^7 M^−1s^−1
α2^H [5]: 0.44

SMILES: c1ccc2c(c1)Nc1ccccc1S2 [Compound 2, phenothiazine, reference compound]
half-life at 10 μM ([6]; BALB/c, mouse, liver microsomes): 11.5 min
n (radical-trapping stoichiometry) [1]: 1.9 ± 0.1
kinh^lip [1, 11]: (110 ± 20)^e 10^5 M^−1s^−1
EC50 [2, 13]: 24 ± 1 nM
EC50 [2, 14]: 24 ± 1 nM
kinh [4]: ~ 8×10^6 M^−1s^−1
α2^H [5]: 0.38

α2^H [5]: 0.51
SMILES: FC(F)(F)c1ccc2c(c1)Nc1ccccc1O2 [Compound 6, 2-trifluoromethylphenoxazine]
EC50 [7, 15]: 8.8 ± 0.5 nM
n (radical-trapping stoichiometry) [1]: 3.0 ± 0.1
kinh^lip [1, 16]: (75 ± 11) 10^5 M^−1s^−1
EC50 [2, 13]: 9 nM

SMILES: CC(C)(C)c1ccc2c(c1)Oc1ccc(C(F)(F)F)cc1N2 [Compound 7, 3-tert-Butyl-8-trifluoromethylphenoxazine]
Pfa-1 MEF Ferroptosis EC50 [7, 17]: single-digit nanomolar potency
n (radical-trapping stoichiometry) [1]: 2.8 ± 0.1
kinh^lip [1, 16]: (75 ± 13) 10^5 M^−1s^−1
EC50 [2, 13]: 4.1 ± 0.1 nM
EC50 [2, 14]: 4.1 ± 0.1 nM

SMILES: CC(C)(C)c1ccc2c(c1)Nc1cc(C(F)(F)F)ccc1O2 [Compound 8, 2-tert-Butyl-8-trifluoromethylphenoxazine]
Pfa-1 MEF Ferroptosis EC50 [7, 17]: single-digit nanomolar potency
n (radical-trapping stoichiometry) [1]: 2.3 ± 0.1
kinh^lip [1, 16]: (64 ± 9) 10^5 M^−1s^−1
EC50 [2, 13]: 5.6 ± 0.3 nM
EC50 [2, 14]: 5.6 ± 0.3 nM

SMILES: CC(C)(C)c1ccc2c(c1)Oc1cc(C(F)(F)F)ccc1N2 [Compound 10, 3-tert-Butyl-7-trifluoromethylphenoxazine]
Pfa-1 MEF Ferroptosis EC50 [7, 17]: single-digit nanomolar potency
n (radical-trapping stoichiometry) [1]: 2.8 ± 0.1
kinh^lip [1, 16]: (55 ± 10) 10^5 M^−1s^−1
EC50 [2, 13]: 5.2 ± 0.2 nM
EC50 [2, 14]: 5.2 ± 0.2 nM

SMILES: CC(C)(C)c1ccc2c(c1)Nc1ccc(C(F)(F)F)cc1O2 [Compound 11, 2-tert-Butyl-7-trifluoromethylphenoxazine]
Pfa-1 MEF Ferroptosis EC50 [7, 17]: single-digit nanomolar potency
n (radical-trapping stoichiometry) [1]: 2.6 ± 0.1
kinh^lip [1, 16]: (44 ± 3) 10^5 M^−1s^−1
EC50 [2, 13]: 3.6 ± 0.2 nM
EC50 [2, 14]: 3.6 ± 0.2 nM

α2^H [5]: 0.43
SMILES: Clc1ccc2c(c1)Nc1ccccc1S2 [Compound 24, reference compound]
EC50 [7, 15]: 56 ± 10 nM
n (radical-trapping stoichiometry) [1]: 2.1 ± 0.1
kinh^lip [1, 16]: (39 ± 4) 10^5 M^−1s^−1

α2^H [5]: 0.44
SMILES: FC(F)(F)c1ccc2c(c1)Nc1ccccc1S2 [Compound 25, reference compound]
EC50 [7, 15]: 16 ± 1 nM
n (radical-trapping stoichiometry) [1]: 2.5 ± 0.1
kinh^lip [1, 16]: (19 ± 1) 10^5 M^−1s^−1

SMILES: O=[N+]([O-])c1ccc2c(c1)Sc1cc([N+](=O)[O-])ccc1N2 [Compound 29, 3,7-Dinitrophenothiazine, reference compound]
EC50 [7, 15]: ≥ 1000 nM
kinh^lip [1, 16]: (0.41 ± 0.04) 10^5 M^−1s^−1
kinh^lip [1, 12]: 400 M⁻¹ s⁻¹
EC50 [2, 13]: > 1000 nM
viability at 1000 µM ([2]; read-out: apparent cell viability): ~50%
α2^H [5]: 0.62

α2^H [5]: 0.41
SMILES: Cc1ccc2c(c1)Oc1cc(C)ccc1N2 [Compound 35, 3,7-Dimethylphenoxazine]
EC50 [7, 15]: 5.4 ± 0.2 nM
kinh^lip ([1]; predicted from log kinh^0, α2^H and β2^H=0.69 using Eq. 4 (too reactive to be determined directly)): 1180 ^f 10^5 M^−1s^−1
predicted increase in kinh^lip relative to PNX ([1]; predicted/estimated kinh^lip vs PNX): 5.1 fold
EC50 [2, 13]: 6 nM

t1/2 [8]: 5.3 ± 0.1 min
SMILES: CCOC(=O)c1ccc(NC2CCCCC2)c(N)c1 [Fer-1, ferrostatin-1]
EC50 [7, 14]: 27 ± 2 nM
EC50 [7, 15]: 27 nM
EC50 [3]: 45 nM
kinh [4]: 300000 M⁻¹ s⁻¹

t1/2 ([6]; BALB/c mouse liver microsomes increased (1.0 mg/mL), 1 mM NADPH, 37° C., 10 μM compound (Verapamil 1 μM)): (133 ± 8.4) ^d min
SMILES: Clc1cccc(CN=C2Nc3ccccc3NC23CCNCC3)c1 [Lip-1, liproxstatin-1]
EC50 [7, 14]: 18 ± 1 nM
EC50 [7, 15]: 18 nM
EC50 [3]: 35 nM
kinh [4]: 200000 M⁻¹ s⁻¹

SMILES: Cc1c(C)c2c(c(C)c1O)CC[C@@](C)(CCC[C@H](C)CCC[C@H](C)CCCC(C)C)O2 [α-TOH, α-tocopherol]
kinh [9]: 6000 M⁻¹ s⁻¹
kinh [10]: 3e+06 M⁻¹ s⁻¹
